# Experiments:
# [1] = Fluorescence measurements (excitation/emission) of the dyes; assay type: physicochemical
# Method: (§1) UV-Visible absorption spectra were recorded on Shimadzu UV-2401PC Spectrophotometer, while fluorescence measurements were performed Spex-Fluorlog2 Fluorometer (Instrument S.A. Inc.).
# (§2) The spectral properties of the dyes of the previous Examples were measured. […] Other materials absorbed at the […] krypton laser wavelength.
# [2] = UV-Visible absorption spectra of the dyes; assay type: physicochemical
# Method: as §1, §2
SMILES,δem (emission wavelength) ([1]; CH2Cl2),δmax (absorption maximum) ([2]; CH2Cl2),further results
"CC1(C)C2=[N+](CCCCCC(=O)Nc3cc(cc(C(=O)O)c3)NC(=O)CCCCCN3/C(=C/C=C/C=C/2)C(C)(C)c2cc(S(=O)(=O)O)ccc23)c2ccc(S(=O)(=O)[O-])cc21 [Dye 16, Bridged Pentamethine Indoleninium Cyanine Dye]",–,–,"δem (emission wavelength) ([1]; PBS): 674 nm; δex (excitation wavelength) ([1]; PBS): 648 nm; e (extinction coefficient at δmax) ([2]; PBS buffer): 250,000; δmax (absorption maximum) ([2]; PBS buffer): 648 nm"
"CC1(C)C2=[N+](CCCCCC(=O)Nc3cc(cc(C(=O)O)c3)NC(=O)CCCCCN3/C(=C/C=C/C=C/C=C/2)C(C)(C)c2cc(S(=O)(=O)O)ccc23)c2ccc(S(=O)(=O)[O-])cc21 [Dye 17, Bridged Heptamethine Indoleninium Cyanine Dye]",–,–,δem (emission wavelength) ([1]; PBS): 780 nm; δex (excitation wavelength) ([1]; PBS): 748 nm; δmax (absorption maximum) ([2]; PBS buffer): 748 nm
"CC1(C)C2=[N+](CCCCCCCCCCCCN3/C(=C/C4=C([O-])C(=C/2)/C4=O)C(C)(C)c2c3ccc3ccccc23)c2ccc3ccccc3c21 [Dye 24, Dodecanyl Bridged Benzindoleninium Squaraine Dye]",681 nm,671 nm,–
"CC1(C)C2=[N+](CCCCCC(=O)Nc3cc(cc(C(=O)O)c3)NC(=O)CCCCCN3/C(=C/C=C/2)C(C)(C)c2cc(S(=O)(=O)[O-])ccc23)c2ccc(S(=O)(=O)O)cc21 [Dye 27, Bridged Trimethine Indolenium Cyanine Dye]",–,–,δmax (absorption maximum) ([2]; solvent not stated): 563 nm
"CC1(C)C2=CC3=C(S)/C(=C\C4=[N+](CCCCCC(=O)Nc5cc(cc(C(=O)O)c5)NC(=O)CCCCCN2c2ccc(S(=O)(=O)O)cc21)c1ccc(S(=O)(=O)[O-])cc1C4(C)C)C3=S [Dye 28, Bridged Thiosquarylium Dye]",–,–,δmax (absorption maximum) ([2]; solvent not stated): 649 nm

# Further lines, with some results ahead:
δem (emission wavelength) ([1]; CH2Cl2),δmax (absorption maximum) ([2]; CH2Cl2),SMILES,further results
674 nm,656 nm,CC1(C)C2=[N+](CCCCCCCCCCCCN3/C(=C/C=C/C=C/2)C(C)(C)c2ccccc23)c2ccccc21.[Br-] [Dye 19],–
–,648 nm,"CC1(C)C2=[N+](CCCCCCCCCCCCN3/C(=C/C4=C([O-])C(=C/2)/C4=O)C(C)(C)c2ccccc23)c2ccccc21 [Dye 20, Dodecanyl Bridged Indoleninium Squaraine Dye]",–
790 nm,760 nm,"CC1(C)C2=[N+](CCCCCCCCCCCCN3/C(=C/C=C/C=C/C=C/2)C(C)(C)c2ccccc23)c2ccccc21.[Br-] [Dye 21, Dodecanyl Bridged Indoleninium Heptamethine Cyanine Dye]",–
716 nm,696 nm,"CC1(C)C2=[N+](CCCCCCCCCCCCN3/C(=C/C=C/C=C/2)C(C)(C)c2c3ccc3ccccc23)c2ccc3ccccc3c21.[Br-] [Dye 23, Dodecanyl Bridged Benzindoleninium Pentamethine Cyanine dye]",–
820 nm,800 nm,"CC1(C)C2=[N+](CCCCCCCCCCCCN3/C(=C/C=C/C=C/C=C/2)C(C)(C)c2c3ccc3ccccc23)c2ccc3ccccc3c21 [Dye 25, Dodecanyl Bridged Benzindoleninium Heptamethine Dye]",–

# Source: US6403807B1, “Bridged fluorescent dyes, their preparation and their use in assays” (SurroMed, Inc., priority 1999, dated 2002)
